Experimental data taken from US20220017541A1, “INHIBITORS OF ARGINASE” (Black Belt Tx Ltd, priority 2018, published 2022).

Key:
[1] = Plasma concentration after single IV or PO dose in mice (LC/MS/MS); type: in vivo; parameters: Plasma concentration PO @ t = 30 min: dose or concentration left out as unconfirmed; details: 30 min after dosing
Experimental: Compounds were formulated at 0.4 and 1 mg/ml in a vehicle containing Poly-Ethylene Glycol 400 (PEG400; Cat. No. #91893, Sigma Aldrich) as dosing solutions for intravenous and oral administration, respectively. Male C57BL6 mice, approximately 8-10 weeks old (22-25 grams), were obtained from the vivarium Fundación Ciencia & Vida Chile (Santiago, Chile) and maintained in a temperature-controlled room with 12/12 hr light/dark schedule with food and water ad libitum. Animals were acclimated for a minimum period of 4 days upon arrival at the testing facility.
At the day of study, mice were weighed, identified by marking the tail with numbers using a non-toxic permanent marker and designated into the experimental groups (n=3 per group). Each mouse of IV dosing groups received the systemic administration of 2 mg/kg dosing solution via caudal vein. […] No.: FTP-2038; Instech Salomon Inc.).
Blood samples were harvested by terminal cardiac puncture at 30 min after dosing. Non-dosed mice were used to collect samples of zero time points. Whole blood was collected into microtainer tubes with (K2) EDTA (Cat. No.: 365974, Becton Dickinson & Co.). Blood samples were centrifuged immediately at 9,000 g at 4° C. for 5 min and then plasmas were separated. Plasma samples were placed into individually labeled cryovials and stored in a −80° C. freezer until LC/MS/MS bioanalysis.
The bioanalysis of plasma samples to determine concentrations of exemplary compounds of the invention was conducted with a QTRAP 4500 triple quadrupole mass spectrometer (Applied Biosystems SCIEX) in the positive ion mode and interfaced with an ekspert ultraLC 100-XL UPLC System (eksigent). Calibration standards (0.01 to 100 μM) and QCs (0.2, 2.0 and 20 μM) were prepared from naïve mouse plasma in parallel with mouse plasma study samples (60 μl) by precipitation with three volumes of ice cold internal standard solution (acetonitrile containing 20 μM of theophylline). The precipitated samples were centrifuged at 6,100 g for 30 min at 4° C. Following centrifugation, an aliquot of each supernatant was transferred into a clean sample vial and diluted with two volumes of aqueous mobile phase (0.2% formic acid in water). Samples were injected onto a reverse phase analytical column (YMC Triart C18; 2.0×50 mm; 1.9 μm; YMC CO) and eluted with a gradient of 0.1 or 0.2% formic acid in Acetonitrile. Test compound and internal standard were monitored by a multiple reaction monitoring (MRM) experiment using an Analyst software (v 1.6.2, Applied Biosystems SCIEX). Quantitation was conducted using a MultiQuant software (v 2.1, Applied Biosystems SCIEX) and the resulting calibration curve was fitted with a linear or quadratic regression and 1/× weighting. The lower limit of quantitation were between 0.01-0.03 μM.
IV and PO PK parameters were calculated from the concentration-time data using Phoenix WinNonlin software (v 6.4, Certara, Princeton, N.J.) by noncompartmental analysis in the sparse sampling mode.

[2] = molecular target: T1, native ARG1 enzyme in lysates of RBC (Homo sapiens, UniProt P05089); test: Arginase enzymatic assay in RBC lysates from healthy donors; type: biochemical; details: human red blood cell lysates; read-out: IC50 Inh RBC
T1 construct: native ARG1 enzyme in lysates of RBC; from tissue; host or cells: human red blood cell lysates from healthy donors
T1 sequence (P05089 1-322): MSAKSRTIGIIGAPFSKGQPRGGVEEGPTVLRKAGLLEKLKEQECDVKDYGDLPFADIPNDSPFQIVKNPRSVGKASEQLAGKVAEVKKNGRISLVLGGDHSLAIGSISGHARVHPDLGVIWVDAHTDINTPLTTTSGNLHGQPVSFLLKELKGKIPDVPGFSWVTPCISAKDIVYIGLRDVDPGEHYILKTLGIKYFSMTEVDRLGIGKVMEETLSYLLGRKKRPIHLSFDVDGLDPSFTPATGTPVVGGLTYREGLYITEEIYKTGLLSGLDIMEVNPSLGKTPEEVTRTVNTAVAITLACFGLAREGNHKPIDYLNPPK
Source text: Arginase catalyzes the hydrolysis of L-arginine into L-ornithine and urea. Urea amount produced by this reaction can be detected using a colorimetric assay and used as an indirect measurement of arginase activity. An adapted protocol from (Baggio, R., et al., J Pharmacol Exp Ther, 1999. 290(3): p. 1409-16) was used for the testing the ability of exemplary compounds of the invention to inhibit arginase enzymes from a variety of sources including recombinant human ARG1 and 2, lysates of human red blood cells (RBC) and intact murine macrophages, as described below.
Compounds of the invention were prepared from powder as 10 mM stock solutions in DMSO and stored in presence of N2 neutral atmosphere at −80° C. For IC50 determination and just before the assay, exemplary compounds were successively diluted to get the following concentrations: 210, 70, 21, 7, 2.1, 0.7, 0.21, 0.07, 0.021, 0.007, 0.0021 and 0.0007 μM (i.e., final concentrations in the wells of 30, 10, 3, 1, 0.3, 0.1, 0.03, 0.01, 0.003, 0.001, 0.0003, 0.0001 μM).
Assays were run in clear flat bottom 96-well plates (Nunclon, Cat. No. #167008) adding in each well the following solutions in this order: (1) 10 μl of Tris-HCl solution supplemented with 0.1% bovine serum albumin (BSA) containing 1.563 μg/ml recombinant human ARG1 (R&D System, Cat. No. #5868-AR-010), (2) 30 μl of Tris-HCl buffer containing 10 mM MnCl2 and (3) 10 μL of a pre-dilution of each test article or DMSO (vehicle). Compounds were allowed to interact with the enzyme-cofactor complex pre-incubating the plate at 37° C. for 30 min. To start the reaction, 20 μl of 50 mM L-arginine (Sigma Aldrich Cat. #A5006-100G) were added to each well in exception of the blank reaction (see below). All reactions were allowed to happen for 1 h at 37° C. To detect the urea production, reactions were stopped by adding 200 μl of a mixture of reagent A (4 mM o-phthalaldehyde in 50 mM Boric Acid, 1 M Sulfuric Acid, 0.03% Brij-35 (w/v)) and reagent B (4 mM N-(1-naphthyl)ethylenediamine in 50 mM Boric Acid, 1 M Sulfuric Acid, 0.03% Brij-35 (w/v)) in equal proportion. Color product was developed for 1 h at room temperature (RT) protected from light and then absorbance at 520 nm was measured using a Multifunction Microplate Reader (Synergy 4, Bioteck). Blank reactions were carried out by adding the L-arginine substrate only after the addition of mixture A-B. All reactions were carried out in duplicates.
The inhibition of urea production was calculated subtracting the absorbance from the blank reaction (zero enzymatic urea production) to the absorbance from all reactions and it was expressed as the percentage of the absorbance from the reaction containing the test article with respect to the absorbance from vehicle reaction (maximum of urea production).
For testing inhibitory activity over RBC lysates from healthy donors, 10 μl of Tris-HCl solution supplemented with 0.1% BSA containing 160 μg RBC lysates per well was used instead.

Structure (SMILES) | Plasma concentration PO @ t = 30 min [1] | IC50 [2] | Plasma concentration 2 mg/Kg IV @ t = 30 min [1]
NC(CCCCB(O)O)(C(=O)O)C1CCN(C2CCc3ccccc32)CC1 (single isomer, unassigned) [Compound 2, 2-amino-6-borono-2-(1-(2,3-dihydro-1H-inden-1-yl)piperidin-4-yl)hexanoic acid] | + (plasma concentration < 500 nM) | < 500 nM | –
NC(CCCCB(O)O)(C(=O)O)C1CCN(C2CCc3ccccc32)CC1 (single isomer, unassigned) [Compound 3, 2-amino-6-borono-2-(1-(2,3-dihydro-1H-inden-1-yl)piperidin-4-yl)hexanoic acid] | – | > 5000 nM | –
CC(c1ccccc1)N1CCC(C(N)(CCCCB(O)O)C(=O)O)CC1 (single isomer, unassigned) [Compound 10, 2-amino-6-borono-2-(1-(1-phenylethyl)piperidin-4-yl)hexanoic acid] | + (plasma concentration < 500 nM) | < 500 nM | + (plasma concentration < 500 nM)
CC(c1ccccc1)N1CCC(C(N)(CCCCB(O)O)C(=O)O)CC1 (single isomer, unassigned) [Compound 11, 2-amino-6-borono-2-(1-(1-phenylethyl)piperidin-4-yl)hexanoic acid] | – | > 5000 nM | –
NC(CCCCB(O)O)(C(=O)O)C1CCN(C2CCc3cc(Cl)ccc32)CC1 (single isomer, unassigned) [Compound 14, 2-amino-6-borono-2-[1-(5-chloroindan-1-yl)-4-piperidyl]hexanoic acid] | – | < 500 nM | –
CNC(CCCCB(O)O)(C(=O)O)C1CCN(C2CCCc3ccccc32)CC1 (single isomer, unassigned) [Compound 79, 6-borono-2-(methylamino)-2-(1-(1,2,3,4-tetrahydronaphthalen-1-yl)piperidin-4-yl)hexanoic acid] | – | < 500 nM | –
NC(CCCCB(O)O)(C(=O)O)C1CCN(C2CCCCc3ccccc32)CC1 (single isomer, unassigned) [Compound 84, 2-amino-6-borono-2-(1-(6,7,8,9-tetrahydro-5H-benzo[7]annulen-5-yl)piperidin-4-yl)hexanoic acid] | – | < 500 nM | –
NC(CCCCB(O)O)(C(=O)O)C1CCN(C2CCc3cc(C(F)(F)F)ccc32)CC1 (single isomer, unassigned) [Compound 85, 2-amino-6-borono-2-[1-[5-(trifluoromethyl)indan-1-yl]-4-piperidyl]hexanoic acid] | – | < 500 nM | –
NC(CCCCB(O)O)(C(=O)O)C1CCN(C2CCc3ccccc32)CC1 (stereo not shown) [Compound 1, 2-amino-6-borono-2-(1-(2,3-dihydro-1H-inden-1-yl)piperidin-4-yl)hexanoic acid] | – | < 500 nM | –
CC(c1ccccc1)N1CCC(C(N)(CCCCB(O)O)C(=O)O)CC1 (stereo not shown) [Compound 9, 2-amino-6-borono-2-(1-(1-phenylethyl)piperidin-4-yl)hexanoic acid] | – | < 500 nM | –
CC1(C)OB(CCCCC(N)(C(=O)O)C2CCN(C3CCCc4ccccc43)CC2)OC1(C)C (stereo not shown) [Compound 77, 2-amino-2-(1-(1,2,3,4-tetrahydronaphthalen-1-yl)piperidin-4-yl)-6-(4,4,5,5-tetramethyl-1,3,2-dioxaborolan-2-yl)hexanoic acid] | – | < 500 nM | –

Now from value to compound, other results behind:

Plasma concentration PO @ t = 30 min [1] | IC50 [2] | Structure (SMILES) | Plasma concentration 2 mg/Kg IV @ t = 30 min [1]
– | < 500 nM | NC(CCCCB(O)O)(C(=O)O)C1CCN(C2CCCc3ccccc32)CC1 (single isomer, unassigned) [Compound 4, 2-amino-6-borono-2-(1-(1,2,3,4-tetrahydronaphthalen-1-yl)piperidin-4-yl)hexanoic acid] | –
+ (plasma concentration < 500 nM) | < 500 nM | NC(CCCCB(O)O)(C(=O)O)C1CCN(C2CCCc3ccccc32)CC1 (single isomer, unassigned) [Compound 5, 2-amino-6-borono-2-(1-(1,2,3,4-tetrahydronaphthalen-1-yl)piperidin-4-yl)hexanoic acid] | ++ (plasma concentration > 1000 nM for test compound)
– | > 5000 nM | NC(CCCCB(O)O)(C(=O)O)C1CCN(C2CCCc3ccccc32)CC1 (single isomer, unassigned) [Compound 6, 2-amino-6-borono-2-(1-(1,2,3,4-tetrahydronaphthalen-1-yl)piperidin-4-yl)hexanoic acid] | –
– | < 500 nM | NC(CCCCB(O)O)(C(=O)O)C1CCN(C2CCCc3cc(Cl)ccc32)CC1 (single isomer, unassigned) [Compound 17, 2-amino-6-borono-2-(1-(6-chloro-1,2,3,4-tetrahydronaphthalen-1-yl)piperidin-4-yl)hexanoic acid] | –
+ (plasma concentration < 500 nM) | < 500 nM | NC(CCCCB(O)O)(C(=O)O)C1CCN(C2CCCc3ccc(F)cc32)CC1 (single isomer, unassigned) [Compound 83, 2-amino-6-borono-2-(1-(7-fluoro-1,2,3,4-tetrahydronaphthalen-1-yl)piperidin-4-yl)hexanoic acid] | –
